Assay results from paper PMC4076210, “Discovery of Novel AKT Inhibitors with Enhanced Anti-Tumor Effects in Combination with the MEK Inhibitor” (PLoS ONE, 2014).
Where “and” joins values, the source holds several entries; their conditions need not be identical. Equal entries are not always repeated. Where two headings read alike, the source gives them in different places.

Assays:
ZAP-70(h) = molecular target: T1, ZAP-70(h) (Homo sapiens, UniProt P43403); experiment: Kinase panel; format: biochemical
T1 construct: purchased Millipore KinaseProfiler
T1 sequence (P43403 1-619): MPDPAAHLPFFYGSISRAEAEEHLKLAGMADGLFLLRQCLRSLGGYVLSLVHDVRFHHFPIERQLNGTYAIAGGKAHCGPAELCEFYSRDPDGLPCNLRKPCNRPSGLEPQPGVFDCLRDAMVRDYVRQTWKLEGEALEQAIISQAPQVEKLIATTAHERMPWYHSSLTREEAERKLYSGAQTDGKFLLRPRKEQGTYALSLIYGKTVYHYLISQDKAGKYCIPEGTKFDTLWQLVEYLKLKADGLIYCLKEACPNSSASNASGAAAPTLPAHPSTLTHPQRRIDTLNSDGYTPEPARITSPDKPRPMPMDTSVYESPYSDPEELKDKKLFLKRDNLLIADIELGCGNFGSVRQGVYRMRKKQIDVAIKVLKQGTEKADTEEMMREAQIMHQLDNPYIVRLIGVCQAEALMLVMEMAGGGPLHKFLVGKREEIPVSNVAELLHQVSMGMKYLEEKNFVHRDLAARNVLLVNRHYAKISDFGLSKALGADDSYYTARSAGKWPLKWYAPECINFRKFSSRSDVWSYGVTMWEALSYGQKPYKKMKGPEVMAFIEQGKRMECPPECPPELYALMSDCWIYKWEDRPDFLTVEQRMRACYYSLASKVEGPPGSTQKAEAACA

PKCβ1 = PKCβ1 (Homo sapiens, UniProt P05771); experiment: Kinase IC50 assay; format: biochemical
Chain of PKCβ1 (P05771 whole entry): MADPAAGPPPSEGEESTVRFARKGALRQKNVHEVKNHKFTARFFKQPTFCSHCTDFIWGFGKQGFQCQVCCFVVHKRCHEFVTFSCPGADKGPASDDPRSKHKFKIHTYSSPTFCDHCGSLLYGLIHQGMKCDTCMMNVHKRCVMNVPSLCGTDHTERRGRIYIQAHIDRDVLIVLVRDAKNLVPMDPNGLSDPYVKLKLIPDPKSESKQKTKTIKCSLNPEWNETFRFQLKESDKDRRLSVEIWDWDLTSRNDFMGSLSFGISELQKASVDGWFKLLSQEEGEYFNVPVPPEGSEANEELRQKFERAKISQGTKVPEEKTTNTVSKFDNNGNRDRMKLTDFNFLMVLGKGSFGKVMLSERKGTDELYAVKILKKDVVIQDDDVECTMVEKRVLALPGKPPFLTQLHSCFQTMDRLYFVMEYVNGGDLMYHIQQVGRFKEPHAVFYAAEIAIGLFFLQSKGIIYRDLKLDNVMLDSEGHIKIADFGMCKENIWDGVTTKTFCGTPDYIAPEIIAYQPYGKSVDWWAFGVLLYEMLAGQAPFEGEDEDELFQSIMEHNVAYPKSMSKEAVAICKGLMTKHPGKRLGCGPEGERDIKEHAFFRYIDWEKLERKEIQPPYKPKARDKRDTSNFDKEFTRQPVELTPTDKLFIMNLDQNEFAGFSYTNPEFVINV

PKCβ2 = PKCβ2 (Homo sapiens, UniProt P05771); experiment: Kinase IC50 assay; format: biochemical
Chain of PKCβ2 (P05771 1-673 isoform P05771-2): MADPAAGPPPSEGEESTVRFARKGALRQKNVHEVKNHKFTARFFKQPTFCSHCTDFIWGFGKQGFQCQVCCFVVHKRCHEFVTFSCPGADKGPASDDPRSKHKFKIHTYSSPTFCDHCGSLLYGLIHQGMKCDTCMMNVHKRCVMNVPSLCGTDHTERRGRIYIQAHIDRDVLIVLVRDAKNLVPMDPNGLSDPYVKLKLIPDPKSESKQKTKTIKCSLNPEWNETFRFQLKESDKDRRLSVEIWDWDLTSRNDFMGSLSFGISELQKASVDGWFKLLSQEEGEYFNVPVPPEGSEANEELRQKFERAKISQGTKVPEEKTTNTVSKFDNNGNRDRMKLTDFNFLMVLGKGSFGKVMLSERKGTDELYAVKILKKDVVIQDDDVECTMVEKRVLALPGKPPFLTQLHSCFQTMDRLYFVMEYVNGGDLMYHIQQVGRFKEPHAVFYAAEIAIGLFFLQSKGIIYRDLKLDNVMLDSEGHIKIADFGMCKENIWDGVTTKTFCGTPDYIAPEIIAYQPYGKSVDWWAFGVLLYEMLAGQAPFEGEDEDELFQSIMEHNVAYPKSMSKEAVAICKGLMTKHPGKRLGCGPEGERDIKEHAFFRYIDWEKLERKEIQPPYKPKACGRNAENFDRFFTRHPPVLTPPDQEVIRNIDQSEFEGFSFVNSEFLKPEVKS

CLK2(h) = molecular target: T2, CLK2(h) (Homo sapiens, UniProt P49760); experiment: Kinase panel; format: biochemical
T2 construct: purchased Millipore KinaseProfiler
T2 sequence (P49760 whole entry): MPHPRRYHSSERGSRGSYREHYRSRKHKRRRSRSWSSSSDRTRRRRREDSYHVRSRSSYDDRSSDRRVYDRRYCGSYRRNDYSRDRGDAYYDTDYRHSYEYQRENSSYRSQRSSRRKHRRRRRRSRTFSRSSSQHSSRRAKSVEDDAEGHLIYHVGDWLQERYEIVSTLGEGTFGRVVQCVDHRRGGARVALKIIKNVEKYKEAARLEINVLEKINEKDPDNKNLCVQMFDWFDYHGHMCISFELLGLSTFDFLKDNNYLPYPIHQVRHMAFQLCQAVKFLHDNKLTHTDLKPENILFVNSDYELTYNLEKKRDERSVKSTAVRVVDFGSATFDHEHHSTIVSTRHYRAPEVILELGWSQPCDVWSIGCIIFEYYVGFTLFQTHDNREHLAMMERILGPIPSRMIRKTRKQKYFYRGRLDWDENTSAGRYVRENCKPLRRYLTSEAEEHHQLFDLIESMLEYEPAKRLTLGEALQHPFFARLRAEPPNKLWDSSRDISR

CLK3(h) = molecular target: T3, CLK3(h) (Homo sapiens, UniProt P49761); experiment: Kinase panel; format: biochemical
T3 construct: purchased Millipore KinaseProfiler
T3 sequence (P49761 whole entry): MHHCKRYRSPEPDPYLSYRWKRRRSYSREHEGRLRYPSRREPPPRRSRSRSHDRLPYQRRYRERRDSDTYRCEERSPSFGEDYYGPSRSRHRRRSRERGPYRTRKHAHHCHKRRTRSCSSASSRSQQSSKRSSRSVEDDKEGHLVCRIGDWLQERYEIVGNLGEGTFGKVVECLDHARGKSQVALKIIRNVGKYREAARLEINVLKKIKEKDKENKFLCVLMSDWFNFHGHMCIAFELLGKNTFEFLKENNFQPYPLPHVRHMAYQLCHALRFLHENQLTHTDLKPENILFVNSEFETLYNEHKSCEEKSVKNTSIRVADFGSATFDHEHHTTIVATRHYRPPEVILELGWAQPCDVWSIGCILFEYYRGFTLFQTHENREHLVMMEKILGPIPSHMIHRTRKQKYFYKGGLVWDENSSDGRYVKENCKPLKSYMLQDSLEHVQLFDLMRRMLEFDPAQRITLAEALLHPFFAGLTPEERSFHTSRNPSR

PKBα(h) = molecular target: T4, PKBα(h) (Homo sapiens, UniProt P31749); experiment: Kinase panel; format: biochemical
T4 construct: purchased Millipore KinaseProfiler
T4 sequence (P31749 whole entry): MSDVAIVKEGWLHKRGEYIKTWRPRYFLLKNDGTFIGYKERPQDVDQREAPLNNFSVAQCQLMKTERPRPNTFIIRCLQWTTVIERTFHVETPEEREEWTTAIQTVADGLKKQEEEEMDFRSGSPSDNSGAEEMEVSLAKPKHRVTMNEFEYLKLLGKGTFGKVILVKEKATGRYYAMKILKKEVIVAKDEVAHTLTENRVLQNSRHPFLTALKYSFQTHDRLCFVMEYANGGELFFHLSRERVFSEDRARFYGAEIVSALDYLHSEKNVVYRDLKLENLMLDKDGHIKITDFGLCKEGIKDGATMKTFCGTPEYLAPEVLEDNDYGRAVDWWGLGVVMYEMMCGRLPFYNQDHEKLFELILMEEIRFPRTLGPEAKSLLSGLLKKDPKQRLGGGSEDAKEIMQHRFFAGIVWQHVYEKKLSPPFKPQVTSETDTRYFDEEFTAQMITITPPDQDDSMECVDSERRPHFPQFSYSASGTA

PKBβ(h) = molecular target: T5, PKBβ(h) (Homo sapiens, UniProt P31751); experiment: Kinase panel; format: biochemical
T5 construct: purchased Millipore KinaseProfiler
T5 sequence (P31751 whole entry): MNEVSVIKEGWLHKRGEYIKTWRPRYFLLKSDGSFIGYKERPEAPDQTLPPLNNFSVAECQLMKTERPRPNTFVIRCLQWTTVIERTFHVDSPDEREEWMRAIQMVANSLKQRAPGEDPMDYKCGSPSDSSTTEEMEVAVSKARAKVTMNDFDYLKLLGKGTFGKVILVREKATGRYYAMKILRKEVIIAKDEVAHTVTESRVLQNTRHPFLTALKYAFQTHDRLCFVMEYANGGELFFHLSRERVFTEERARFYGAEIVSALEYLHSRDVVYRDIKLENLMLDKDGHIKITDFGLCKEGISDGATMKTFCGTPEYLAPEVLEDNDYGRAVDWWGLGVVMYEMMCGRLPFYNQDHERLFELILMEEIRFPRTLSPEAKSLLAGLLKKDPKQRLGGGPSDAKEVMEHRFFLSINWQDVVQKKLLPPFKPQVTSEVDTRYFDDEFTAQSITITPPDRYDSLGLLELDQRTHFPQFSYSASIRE

PKBγ(h) = molecular target: T6, PKBγ(h) (Homo sapiens, UniProt Q9Y243); experiment: Kinase panel; format: biochemical
T6 construct: purchased Millipore KinaseProfiler
T6 sequence (Q9Y243 whole entry): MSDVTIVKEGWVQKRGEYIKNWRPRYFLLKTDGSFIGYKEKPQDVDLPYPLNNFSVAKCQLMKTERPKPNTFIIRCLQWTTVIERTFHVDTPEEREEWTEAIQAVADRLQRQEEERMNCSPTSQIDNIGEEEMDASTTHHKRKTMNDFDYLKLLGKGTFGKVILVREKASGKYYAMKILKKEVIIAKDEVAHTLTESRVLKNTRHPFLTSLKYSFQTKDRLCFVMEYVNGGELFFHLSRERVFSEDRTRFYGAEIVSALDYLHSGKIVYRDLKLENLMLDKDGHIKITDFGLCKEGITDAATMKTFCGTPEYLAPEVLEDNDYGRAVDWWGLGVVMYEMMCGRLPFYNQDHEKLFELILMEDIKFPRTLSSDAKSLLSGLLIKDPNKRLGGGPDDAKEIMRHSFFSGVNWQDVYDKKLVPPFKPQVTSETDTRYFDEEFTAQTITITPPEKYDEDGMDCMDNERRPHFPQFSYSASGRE

[1] = test system: FOXO_GFP translocation in MDA-MB-468; experiment: FOXO3A-GFP translocation assay; format: cell-based, human; conditions: MDA-MB-468, 1 h, mean ± std dev
Procedure: MDA-MB-468 cells stably transfected with FOXO3A-GFP were plated at 1000 cells/96 well and allowed to adhere overnight. Cells were treated with DMSO or AKT inhibitor (0-10 µM) for 1 h. Plates were centrifuged at 1200 rpm for 10 min, and the medium aspirated. Cells were fixed with 200 μL of 4% paraformaldehyde (Alfa Aesar, Wood Hill, MA), and DAPI (80 ng/mL, Roche, Branchburg, NJ) was added to each well and incubated for 20 min at room temperature. […] Five fields per well were imaged to achieve ≥250 nuclei count per well. A ratio of nuclear to cytoplasmic intensity was calculated by the software. The formula used to calculate percentage nuclear translocation = (Fluorescence sample- Fluorescence DMSO)/ (Fluorescence 10 µM treatment sample- Fluorescence DMSO)*100. The calculation produces a scale of 0-100% with 100% being 10 µM of compound treatment and 0 being DMSO treatment. The normalized values were then plotted in the XLFit 4 parameter curve fitting program to generate EC50 values.

A3 cells = experiment: Cell cycle analysis; format: cell-based, human; conditions: A3, 1 µM
Procedure: (§1) Cells were plated in 96 well plates at a density of 3000-5000 cells/well and allowed to adhere overnight. Cells were treated with DMSO or various concentrations of drug for 72 h, fixed and stained with propidium iodide to stain nuclei (Vindelov, 1982). Cells were analyzed in a flow cytometer (FACSCalibur; BD Biosciences, Franklin Lakes, NJ) and the fraction of cells in each phase of cell cycle was determined using the cell cycle analysis platform contained within the FlowJo software (Tree Star, Ashland, OR).

BT474 cells = experiment: Cell cycle analysis; format: cell-based, human; conditions: BT474, evident at 1 µM
Procedure: as §1

I9.2 cells = experiment: Cell cycle analysis; format: cell-based, human; conditions: I9.2, 1 µM
Procedure: as §1

LNCaP cells = experiment: Cell cycle analysis; format: cell-based, human; conditions: various concentrations
Procedure: as §1

[2] = Compound concentration in blood and tumor (HPLC/MS/MS); format: in vivo, mouse
Procedure: Concentration of the test compounds in the tissue and blood was analyzed using protein precipitation with acetonitrile, followed by HPLC/MS/MS analysis using positive ion atmospheric pressure chemical ionization or Turbo ionspray ionization (API 4000 or API 5000, Applied Biosystems).
The pharmacodynamic studies were carried out in SCID mice bearing BT474 tumor xenografts. […] Concentration of the test compounds was analysed by HPLC/MS/MS analysis.

CAPAN-2 tumor xenografts = experiment: Xenograft tumor growth inhibition, combination with MEK inhibitor; format: in vivo, mouse; conditions: 30 mg/kg, day 69
Procedure: (§2) Tumors were initiated by injecting either cells (SKOV3, CAPAN-2 and HPAC) or a tumor fragments (BT474) subcutaneously into 6–8 week female athymic nude (SKOV3) and SCID (all others) mice. Once tumors reached between 120 and 300 mm^3, mice were randomized according to tumor volume into groups of n = 7–10 mice per treatment. GSK2110183 and GSK2141795 were administered daily at various doses by oral gavage. In combination experiments, GSK1120212 was also administered daily by oral gavage. Tumor volumes and body weight were measured twice weekly, tumor volume was measured with calipers and calculated using equation: […]. Results are represented as percent inhibition on completion of dosing = 100 x [1- average growth of drug-treated population/average growth of vehicle-treated control population].

HPAC tumor xenografts = experiment: as above; format: in vivo, mouse; conditions: 30 mg/kg daily, day 42
Procedure: as §2

cancer patients = conditions: unselected patient population; cited from earlier work

Structure (SMILES): Cn1ncc(Cl)c1-c1cc(C(=O)N[C@H](CN)Cc2cccc(F)c2)sc1Cl [GSK2110183]
- inhibition at 0.5 µM (ZAP-70(h)): 8%
- inhibition at 10 µM (ZAP-70(h)): -2%
- IC50 (PKCβ1): 430 nM
- IC50 (PKCβ2): > 1000 nM

Structure (SMILES): Cn1ncc(Cl)c1-c1cc(C(=O)N[C@H](CN)Cc2ccc(F)c(F)c2)oc1Cl [GSK2141795]
- inhibition at 0.5 µM (CLK2(h); 0.5 µM): 58%
- inhibition at 10 µM (CLK2(h); 10 µM): 94%
- inhibition at 0.5 µM (CLK3(h); 0.5 µM): 2%
- inhibition at 10 µM (CLK3(h); 10 µM): 59%
- inhibition at 0.5 µM (PKBα(h); 0.5 µM): 99%
- inhibition at 10 µM (PKBα(h); 10 µM): 99%
- inhibition at 0.5 µM (PKBβ(h); 0.5 µM): 95%
- inhibition at 10 µM (PKBβ(h); 10 µM): 99%
- inhibition at 0.5 µM (PKBγ(h); 0.5 µM): 98%
- inhibition at 10 µM (PKBγ(h); 10 µM): 98%
- inhibition at 0.5 µM (ZAP-70(h); 0.5 µM, read-out: % Inhibition): -23%
- inhibition at 10 µM (ZAP-70(h); 10 µM, read-out: % Inhibition): -24%
- IC50 (nM) / EC50, FOXO_GFP translocation [1]: 47 nM and 47 ± 37 nM
- effect on cell cycle (A3 cells): dose dependant increase in G1 cellular arrest
- effect on cell cycle (BT474 cells): G1 arrest
- effect on cell cycle (I9.2 cells): dose dependant increase in G1 cellular arrest
- effect on cell cycle (LNCaP cells): concentration-dependent increase in cells within the sub-G1 phase
- blood concentrations ([2]; 30 mg/kg QDx7, time course, maintained for 8 h): 2000 to 3000 nM
- concentration at 2 h ([2]; SCID, mouse, whole blood, 30 mg/kg QDx7 oral, 2 h post last dose): ~3000 nM
- TGI (CAPAN-2 tumor xenografts): 26%
- TGI (HPAC tumor xenografts): 31%
- clinical activity, single agent (cancer patients): partial response and stable disease
